The values that follow come from patent US10329289B2, “6,7-dihydro-5H-pyrrolo[3,4-B]pyridin-5-one allosteric modulators of the M4 muscarinic acetylcholine receptor” (Merck Sharp & Dohme Corp., priority 2015, dated 2019).

Molecules are shown by their SMILES.

This experiment deals with T1, human M4 muscarinic acetylcholine receptor (Homo sapiens, UniProt P08173).
T1 construct: expressed in transfected cells; host or cells: CHO-K1
T1 sequence (P08173 1-479): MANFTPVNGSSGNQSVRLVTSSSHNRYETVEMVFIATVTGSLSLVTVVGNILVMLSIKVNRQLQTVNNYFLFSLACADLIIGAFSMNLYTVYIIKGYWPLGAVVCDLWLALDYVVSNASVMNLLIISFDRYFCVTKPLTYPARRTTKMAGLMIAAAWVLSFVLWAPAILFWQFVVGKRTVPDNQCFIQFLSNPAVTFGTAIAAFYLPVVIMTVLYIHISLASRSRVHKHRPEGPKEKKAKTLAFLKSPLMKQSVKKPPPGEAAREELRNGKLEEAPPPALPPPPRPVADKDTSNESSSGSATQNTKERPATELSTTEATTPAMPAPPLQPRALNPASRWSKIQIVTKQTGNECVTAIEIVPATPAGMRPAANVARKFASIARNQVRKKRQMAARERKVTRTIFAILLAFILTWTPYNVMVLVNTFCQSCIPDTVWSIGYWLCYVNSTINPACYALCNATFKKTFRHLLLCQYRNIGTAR
The experiment is described as follows: human FLIPR-based M4 PAM assay (Ca2+ mobilization, CHO-K1 cells with human M4 receptor and Gαqi5). The experiment is classed as cell-based. The note with it: acetylcholine at 20% of maximum response, read-out: M4 PAM IP. The method in brief: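 CHO-K1 cells stably expressing human M4 and chimeric Gαqi5 were dye-loaded ~1 h at 37 °C and read for Ca2+ fluorescence. Compound followed by acetylcholine at an EC20 (sometimes an EC70 third addition); inflection point from a 4-parameter logistic fit.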
Regarding `CCc1cc2c(nc1N1CCC(Oc3ccc4c(c3)OCC4)CC1)[C@@H](CO)N(C)C2=O` [Example 365, (S)-2-(4-((2,3-dihydrobenzofuran-6-yl)oxy)piperidin-1-yl)-3-ethyl-7-(hydroxymethyl)-6-methyl-6,7-dihydro-5H-pyrrolo[3,4-b]pyridin-5-one], the EC50 is 26 nM. With `Cc1cc2c(nc1N1CC[C@@H](Oc3ccc4c(c3)COC4)[C@@H](F)C1)CN(C)C2=O` [Example 46, 2-((3S,4R)-4-((1,3-dihydro-2-benzofuran-5-yl)oxy)-3-fluoropiperidin-1-yl)-3,6-dimethyl-6,7-dihydro-5H-pyrrolo[3,4-b]pyridin-5-one] the figure was 32 nM; with `Cc1cccc(OC2CCN(c3nc4c(cc3C)C(=O)NC4)CC2)c1` [Example 78, 3-methyl-2-(4-(m-tolyloxy)piperidin-1-yl)-6,7-dihydro-5H-pyrrolo[3,4-b]pyridin-5-one], 33 nM.

On to `C=C1NC(=O)c2cc(C)c(N3CCC(Oc4ccc(OC)nc4)CC3)nc21` [Example 289, 2-(4-((6-Methoxypyridin-3-yl)oxy)piperidin-1-yl)-3-methyl-7-methylene-6,7-dihydro-5H-pyrrolo[3,4-b]pyridin-5-one], for which the EC50 came to 156 nM. With `COc1ccc(OC2CCN(c3nc4c(cc3C)C(=O)N(C)C4C(C)(C)O)CC2)cn1` (centres unmarked) [Example 322, 7-(2-Hydroxypropan-2-yl)-2-(4-((6-methoxypyridin-3-yl)oxy)piperidin-1-yl)-3,6-dimethyl-6,7-dihydro-5H-pyrrolo[3,4-b]pyridin-5-one] the figure was 499 nM; with `Cc1c(N2CCC(Oc3ccc(F)cc3)CC2)nc2c(c1C)C(=O)N(C)[C@@H]2CO` [Example 353, (S)-2-(4-(4-fluorophenoxy)piperidin-1-yl)-7-(hydroxymethyl)-3,4,6-trimethyl-6,7-dihydro-5H-pyrrolo[3,4-b]pyridin-5-one], 30 nM. The same measure for `COc1ccc(O[C@@H]2CCN(c3nc4c(cc3C)C(=O)NC4)C[C@@H]2F)cn1` [Example 164, 2-((3S,4R)-3-fluoro-4-((6-methoxypyridin-3-yl)oxy)piperidin-1-yl)-3-methyl-6,7-dihydro-5H-pyrrolo[3,4-b]pyridin-5-one]: 82 nM.

As for `CCOc1ccc(OC2CCN(c3nc4c(cc3C)C(=O)N(C)[C@H]4CO)CC2)cn1` [Example 285, (R)-2-(4-((6-ethoxypyridin-3-yl)oxy)piperidin-1-yl)-7-(hydroxymethyl)-3,6-dimethyl-6,7-dihydro-5H-pyrrolo[3,4-b]pyridin-5-one], the EC50 turned out to be 8620 nM. With `COc1ccc(OC2CCN(c3nc4c(c(C)c3C)C(=O)NC4)CC2)cn1` [Example 218, 2-(4-((6-Methoxypyridin-3-yl)oxy)piperidin-1-yl)-3,4-dimethyl-6,7-dihydro-5H-pyrrolo[3,4-b]pyridin-5-one] the figure was 38 nM; with `CCc1cc2c(nc1N1CC[C@@H](Oc3ccc4c(c3)COC4)[C@H](F)C1)CNC2=O` [Example 217, 2-((3R,4R)-4-((1,3-dihydro-2-benzofuran-5-yl)oxy)-3-fluoropiperidin-1-yl)-3-ethyl-6,7-dihydro-5H-pyrrolo[3,4-b]pyridin-5-one], 42 nM; with `Cc1cc2c(nc1N1CCC(Oc3ccc(F)nc3)CC1)CNC2=O` [Example 91, 2-(4-((6-fluoropyridin-3-yl)oxy)piperidin-1-yl)-3-methyl-6,7-dihydro-5H-pyrrolo[3,4-b]pyridin-5-one], 60 nM. With `COc1ccc(OC2CCN(c3nc4c(cc3C)C(=O)NC4)CC2)cc1` [Example 47, 2-(4-(4-methoxyphenoxy)piperidin-1-yl)-3-methyl-6,7-dihydro-5H-pyrrolo[3,4-b]pyridin-5-one] the figure was 41 nM; with `Cc1cc2c(nc1N1CCC(Oc3ccc4nccn4c3)CC1)CNC2=O` [Example 182A, 2-(4-(imidazo[1,2-a]pyridin-6-yloxy)piperidin-1-yl)-3-methyl-6,7-dihydro-5H-pyrrolo[3,4-b]pyridin-5-one], 473 nM; with `Cc1cc2c(nc1N1CC[C@@H](Oc3ccc4c(cnn4C)c3)[C@H](F)C1)CNC2=O` [Example 25, 2-((3R,4R)-3-fluoro-4-((1-methyl-1H-indazol-5-yl)oxy)piperidin-1-yl)-3-methyl-6,7-dihydro-5H-pyrrolo[3,4-b]pyridin-5-one], 75 nM. With `Cc1cc2c(nc1N1CCC(Oc3ccc(OCCN(C)C)nc3)CC1)CNC2=O` [Example 168, 2-(4-((6-(2-(dimethylamino)ethoxy)pyridin-3-yl)oxy)piperidin-1-yl)-3-methyl-6,7-dihydro-5H-pyrrolo[3,4-b]pyridin-5-one] the figure was 119 nM; with `Cc1cc2c(nc1N1CCC(Oc3cccc(C#N)c3)CC1)CN(P(=O)(O)O)C2=O` [Example 325, Ammonium (2-(4-(3-cyanophenoxy)piperidin-1-yl)-3-methyl-5-oxo-5,7-dihydro-6H-pyrrolo[3,4-b]pyridin-6-yl)phosphonate], 204 nM.

`Cc1cc2c(nc1N1CCC(Oc3ccc4c(c3)C(C)(C)CCO4)CC1)CNC2=O` [Example 125, 2-(4-((4,4-dimethylchroman-6-yl)oxy)piperidin-1-yl)-3-methyl-6,7-dihydro-5H-pyrrolo[3,4-b]pyridin-5-one]: the EC50 worked out at 612 nM. For the compound `COc1ccc(OC2CCN(c3nc4c(cc3C(F)(F)F)C(=O)NC4)CC2)cn1` [Example 230, 2-(4-((6-Methoxypyridin-3-yl)oxy)piperidin-1-yl)-3-(trifluoromethyl)-6,7-dihydro-5H-pyrrolo[3,4-b]pyridin-5-one], the EC50 worked out at 2120 nM. Consider `Cc1cc2c(nc1N1CCC(OC3CCOC3)CC1)CNC2=O` (centres unmarked) [Example 41, 3-methyl-2-(4-((tetrahydrofuran-3-yl)oxy)piperidin-1-yl)-6,7-dihydro-5H-pyrrolo[3,4-b]pyridin-5-one], for which the EC50 came to 11300 nM. The same measure for `COCCN1Cc2nc(N3CCC(Oc4ccc5c(c4)COC5)CC3)c(C)cc2C1=O` [Example 263A, 2-(4-((1,3-dihydro-2-benzofuran-5-yl)oxy)piperidin-1-yl)-6-(2-methoxyethyl)-3-methyl-6,7-dihydro-5H-pyrrolo[3,4-b]pyridin-5-one]: 40 nM. For `COc1ccc(OC2CCN(c3nc4c(cc3C)C(=O)N(C3CC3)C4)CC2)cn1` [Example 269, 6-Cyclopropyl-2-(4-((6-methoxypyridin-3-yl)oxy)piperidin-1-yl)-3-methyl-6,7-dihydro-5H-pyrrolo[3,4-b]pyridin-5-one], the EC50 was 65 nM.

`Cc1cc2c(nc1N1CC[C@@H](Oc3cnc4c(c3)COC4)[C@@H](F)C1)CNC2=O` [Example 65, 2-((3S,4R)-4-((5,7-dihydrofuro[3,4-b]pyridin-3-yl)oxy)-3-fluoropiperidin-1-yl)-3-methyl-6,7-dihydro-5H-pyrrolo[3,4-b]pyridin-5-one]: the EC50 was 75 nM. With `Cc1cc2c(nc1N1CC[C@@H](Oc3ccc4c(c3)COC4)[C@H](F)C1)CN(CCO)C2=O` [Example 257, 2-((3R,4R)-4-((1,3-dihydro-2-benzofuran-5-yl)oxy)-3-fluoropiperidin-1-yl)-6-(2-hydroxyethyl)-3-methyl-6,7-dihydro-5H-pyrrolo[3,4-b]pyridin-5-one] the figure was 84 nM.
